Measured values reported in ChEMBL document CHEMBL5303573, “Mapping human microbiome drug metabolism by gut bacteria and their genes” (Nature, 2019).

How the values were obtained:
[1] = The drug is tested on Alistipes indistinctus strain: DSM22520 for biotransformation. The drug concentrations were measured before and after a 12-h incubation by liquid-chromatography-coupled mass spectrometry (LC–MS); conditions: 2 µM
[2] = The drug is tested on Ruminococcus lactaris strain: ATCC29176 for biotransformation. The drug concentrations were measured before and after a 12-h incubation by liquid-chromatography-coupled mass spectrometry (LC–MS); conditions: 2 µM
[3] = The drug is tested on Parabacteroides merdae strain: ATCC43184 for biotransformation. The drug concentrations were measured before and after a 12-h incubation by liquid-chromatography-coupled mass spectrometry (LC–MS); conditions: 2 µM
[4] = The drug is tested on Ruminococcus torques strain: ATCC27756 for biotransformation. The drug concentrations were measured before and after a 12-h incubation by liquid-chromatography-coupled mass spectrometry (LC–MS); type: ADME; set-up: dose 2 uM, timepoint 0 vs 12 hours; conditions: 2 µM
[5] = The drug is tested on Collinsella intestinalis strain: DSM13280 for biotransformation. The drug concentrations were measured before and after a 12-h incubation by liquid-chromatography-coupled mass spectrometry (LC–MS); conditions: 2 µM
[6] = The drug is tested on Subdoligranulum variabile strain: DSM15176 for biotransformation. The drug concentrations were measured before and after a 12-h incubation by liquid-chromatography-coupled mass spectrometry (LC–MS); conditions: 2 µM
[7] = The drug is tested on Bacteroides fragilis strain: ATCC43859 for biotransformation. The drug concentrations were measured before and after a 12-h incubation by liquid-chromatography-coupled mass spectrometry (LC–MS); conditions: 2 µM
[8] = bacteroides fragilis, 12 h, 2 µM
[9] = anaerostipes sp., 12 h, 2 µM
[10] = The drug is tested on Bacteroides fragilis strain: HMW610 for biotransformation. The drug concentrations were measured before and after a 12-h incubation by liquid-chromatography-coupled mass spectrometry (LC–MS); conditions: 2 µM
[11] = The drug is tested on Bacteroides fragilis strain: HMW615 for biotransformation. The drug concentrations were measured before and after a 12-h incubation by liquid-chromatography-coupled mass spectrometry (LC–MS); conditions: 2 µM
[12] = The drug is tested on Bacteroides cellulosilyticus strain: DSM14838 for biotransformation. The drug concentrations were measured before and after a 12-h incubation by liquid-chromatography-coupled mass spectrometry (LC–MS); conditions: 2 µM
[13] = The drug is tested on Blautia luti strain: DSM14534 for biotransformation. The drug concentrations were measured before and after a 12-h incubation by liquid-chromatography-coupled mass spectrometry (LC–MS); type: ADME; set-up: dose 2 uM, timepoint 0 vs 12 hours; conditions: 2 µM
[14] = The drug is tested on Bacteroides coprophilus strain: DSM18228 for biotransformation. The drug concentrations were measured before and after a 12-h incubation by liquid-chromatography-coupled mass spectrometry (LC–MS); conditions: 2 µM
[15] = bacteroides fragilis, 12 h, 2 µM; remark: listed apart in the source
Description: The drug is tested on Bacteroides fragilis strain: 3397 (T10) for biotransformation. The drug concentrations were measured before and after a 12-h incubation by liquid-chromatography-coupled mass spectrometry (LC–MS)

[16] = The drug is tested on Clostridium ramosum strain: DSM1402 for biotransformation. The drug concentrations were measured before and after a 12-h incubation by liquid-chromatography-coupled mass spectrometry (LC–MS); conditions: thomasclavelia ramosa, 2 µM
[17] = The drug is tested on Bacteroides dorei strain: DSM17855 for biotransformation. The drug concentrations were measured before and after a 12-h incubation by liquid-chromatography-coupled mass spectrometry (LC–MS); conditions: phocaeicola dorei, 2 µM
[18] = The drug is tested on Clostridium sporogenes strain: ATCC15579 for biotransformation. The drug concentrations were measured before and after a 12-h incubation by liquid-chromatography-coupled mass spectrometry (LC–MS); conditions: 2 µM
[19] = The drug is tested on Clostridium symbiosum strain: ATCC14940 for biotransformation. The drug concentrations were measured before and after a 12-h incubation by liquid-chromatography-coupled mass spectrometry (LC–MS); conditions: 2 µM
[20] = The drug is tested on Enterobacter cancerogenus strain: ATCC35316 for biotransformation. The drug concentrations were measured before and after a 12-h incubation by liquid-chromatography-coupled mass spectrometry (LC–MS); conditions: 2 µM

Measured: Bacterial Biotransformation

COc1ccc(CCN(C)CCCC(C#N)(c2ccc(OC)c(OC)c2)C(C)C)cc1OC (stereo unspecified)
Compound NOT metabolized: [1] | [2] | [3] | [4] | [5] | [6] | [7] | [8] | [9] | [10] | [11] | [12] | [13] | [14]

CCCCCCOC(=O)/N=C(/N)c1ccc(NCc2nc3cc(C(=O)N(CCC(=O)OCC)c4ccccn4)ccc3n2C)cc1.CS(=O)(=O)O [DABIGATRAN ETEXILATE MESYLATE]
Compound NOT metabolized: [1] | [2] | [15] | [3] | [5] | [6] | [8] | [16] | [17] | [9] | [18] | [12] | [13] | [14] | [19] | [20]

C#C[C@]1(OC(C)=O)CC[C@H]2[C@@H]3CCC4=C[C@@H](OC(C)=O)CC[C@@H]4[C@H]3CC[C@@]21C [ETHYNODIOL DIACETATE]
Compound NOT metabolized: [2] | [15] | [3] | [4] | [5] | [6] | [8] | [16] | [17] | [9] | [18] | [11] | [12] | [14] | [20]

CCN(CC)CCCC(C)Nc1c2ccc(Cl)cc2nc2ccc(OC)cc12 (stereo unspecified) [QUINACRINE]
Compound NOT metabolized: [15] | [3] | [4] | [5] | [6] | [7] | [8] | [16] | [17] | [9] | [18] | [12] | [13] | [14] | [20]

CCCCCNC(=N)N/N=C/c1c[nH]c2ccc(OC)cc12.O=C(O)/C=C\C(=O)O [TEGASEROD MALEATE]
Compound NOT metabolized: [1] | [2] | [15] | [3] | [4] | [5] | [6] | [7] | [8] | [16] | [17] | [9] | [18] | [10] | [11] | [12] | [13] | [14] | [19]

COc1cc2nc(N3CCN(C(=O)C4CCCO4)CC3)nc(N)c2cc1OC (stereo unspecified) [TERAZOSIN]
Compound NOT metabolized: [15] | [3] | [4] | [5] | [6] | [7] | [8] | [17] | [9] | [18] | [10] | [11] | [12] | [13] | [14] | [19] | [20]

CC(C)(C)NC[C@H](O)COc1nsnc1N1CCOCC1.O=C(O)/C=C\C(=O)O [TIMOLOL MALEATE]
Compound NOT metabolized: [2] | [15] | [3] | [4] | [5] | [6] | [8] | [17] | [9] | [18] | [12] | [13] | [14] | [19] | [20]

COc1cc(C(=O)NCc2ccc(OCCN(C)C)cc2)cc(OC)c1OC [TRIMETHOBENZAMIDE]
Compound NOT metabolized: [1] | [2] | [15] | [3] | [4] | [5] | [6] | [7] | [8] | [17] | [9] | [18] | [10] | [11] | [12] | [13] | [14] | [19]

Cc1ccc(-c2nc3ccc(C)cn3c2CC(=O)N(C)C)cc1 [ZOLPIDEM]
Compound NOT metabolized: [1] | [2] | [15] | [3] | [4] | [5] | [6] | [8] | [16] | [9] | [18] | [10] | [11] | [12] | [13] | [19] | [20]
